Test results: patent publication US7741346B2, “Angiogenesis inhibitor” (Santen Pharmaceutical Co., Ltd., priority 2001, dated 2010)

Tested on: normal human umbilical vein endotherial cells (HUVEC)
Test: VEGF-induced HUVEC proliferation (in vitro angiogenesis inhibition test)
Assay type: cell-based
Details: Homo sapiens, HUVEC, 72 h, 10 μM test compound, 10 ng/ml VEGF, three days after adding VEGF, WST-8 absorbance at 450 nm; read-out: Inhibitory rate (%) (cell growth inhibitory rate to the control)
Description: (1) Angiogenesis Inhibition Tests Using Human Endothelial Cells
The effects of the present compounds on the in vitro angiogenesis were evaluated by using vascular endothelial growth factor (VEGF)-induced normal human umbilical vein endotherial cells (HUVEC) proliferation system (Cancer Res., 59, 99-106 (1999)), wherein inhibitory effects of drugs on cell growth reactions induced by treating HUVEC with VEGF as an in vitro angiogenesis evaluation model.
The present compound was dissolved in DMSO and then diluted with a medium to prepare 40 μM test compound solution.
2×10^3 cells/well of HUVEC was seeded onto a type I collagen coated 96-well plate. After one day, 25 μl of the 40 μM test compound solution and a 0.8% DMSO solution as a control were added to each well (final concentration; 10 μM of the test compound and 0.2% of DMSO). One hour after adding the test compound, 25 μl of 40 ng/ml VEGF solution was added to each well(final concentration; 10 ng/ml of VEGF). Three days after adding VEGF, a WST-8 assay reagent (manufactured by Dojin Chemical Co., Ltd.) was added to each well in an amount of 10 μl, and absorbance at 450 nm was measured.
Calculating cell growth inhibitory rates (%) to the control, angiogenesis inhibitory rates of almost all of the test compounds were 80% or higher.

Row | Structure (SMILES) | inhibition at 10 µM [%]
1 | CCCCCN(CCC12CC3CC(CC(C3)C1)C2)C(=O)NC/C=C\c1ccncc1 [Compound No. 1-111, (Z)-1-[2-(1-Adamantyl)ethyl]-1-pentyl-3-[3-(4-pyridyl)-2-propenyl]urea] | 83.1
2 | CCCCCN(CCC12CC3CC(CC(C3)C1)C2)C(=O)NCCCc1ccncc1 [Compound No. 1-1, 1-[2-(1-Adamantyl)ethyl]-1-pentyl-3-[3-(4-pyridyl)propyl]urea] | 83.4
3 | CC(CNC(=O)N(CCN(C)C(=O)OC(C)(C)C)CCC12CC3CC(CC(C3)C1)C2)Cc1ccncc1 (centres unmarked) [Compound No. 1-107] | 83.2
4 | CCCCCN(CCC12CC3CC(CC(C3)C1)C2)C(=O)CCCCCc1ccncc1 [Compound No. 2-20, 6-(4-Pyridyl)caproic acid N-[2-(1-adamantyl)ethyl]-N-pentylamide] | 82.5
5 | CCCN(CCCC12CC3CC(CC(C3)C1)C2)C(=O)NCCCc1ccncc1 [Compound No. 1-35, 1-[3-(1-Adamantyl)propyl]-1-propyl-3-[3-(4-pyridyl)propyl]urea] | 83.7

Tested on: not given
Test: not given
Details: not given

Row | Structure (SMILES) | melting point [°C]
6 | O=C(NCCCc1ccncc1)N(CCC12CC3CC(CC(C3)C1)C2)CC1CCCC1 [Compound No. 1-21, 1-[2-(1-Adamantyl)ethyl]-1-cyclopentylmethyl-3-[3-(4-pyridyl)propyl]urea] | 155 to 158
7 | CCCCCN(CCC12CC3CC(CC(C3)C1)C2)C(=O)NCCc1ccc(O)cc1 | 96.3 to 99.4
8 | CC(C)(C)OC(=O)NCCN(CCC12CC3CC(CC(C3)C1)C2)C(=O)NCCCc1cc[n+](Cc2ccccc2)cc1.[Br-] | 97
9 | O=C(NCCCc1ccncc1)N(CCC12CC3CC(CC(C3)C1)C2)Cc1ccco1 [Compound No. 1-42, 1-[2-(1-Adamantyl)ethyl]-1-furfuryl-3-[3-(4-pyridyl)propyl]urea] | 128 to 130
10 | CC(=O)NN(CCC12CC3CC(CC(C3)C1)C2)C(=O)NCCCc1ccncc1 [Compound No. 10-1, 1-Acetylamino-1-[2-(1-adamantyl)ethyl]-3-[3-(4-pyridyl)propyl]urea] | 140 to 146
11 | CCN(CCC12CC3CC(CC(C3)C1)C2)C(=O)NCCCc1ccncc1 [Compound No. 1-41, 1-[2-(1-Adamantyl)ethyl]-1-ethyl-3-[3-(4-pyridyl)propyl]urea] | 106 to 115
12 | CC(C)(C)OC(=O)CCN(CCC12CC3CC(CC(C3)C1)C2)C(=O)NCCCc1ccncc1 [Compound No. 1-69, 1-[2-(1-Adamantyl)ethyl]-1-[2-(t-butoxycarbonyl)ethyl]-3-[3-(4-pyridyl)propyl]urea] | 124.5 to 127
13 | CCCCCN(CCC12CC3CC(CC(C3)C1)C2)C(=O)NCCc1ccccn1 [Compound No. 1-75, 1-[2-(1-Adamantyl)ethyl]-1-pentyl-3-[2-(2-pyridyl)ethyl]urea] | 80 to 100
14 | CCN(CCCCC12CC3CC(CC(C3)C1)C2)C(=O)NCCCc1ccncc1 [Compound No. 1-124, 1-[4-(1-Adamantyl)butyl]-1-ethyl-3-[3-(4-pyridyl)propyl]urea] | 92.7 to 93.7
15 | CCCN(CCCC12CC3CC(CC(C3)C1)C2)C(=O)NCc1ccncc1 [Compound No. 1-128, 1-[3-(1-Adamantyl)propyl]-1-propyl-3-(4-pyridyl)methylurea] | 96 to 98
16 | CCCCCN(CCC12CC3CC(CC(C3)C1)C2)C(=O)NC[C@@H]1C[C@@H]1c1ccncc1 (relative stereo) [Compound No. 15-1, cis-1-[2-(1-adamantyl)ethyl]-1-pentyl-3-[2-(4-pyridyl)cyclopropylmethyl]urea] | 128 to 130
17 | CCCCN(CCC12CC3CC(CC(C3)C1)C2)C(=O)NCCCc1ccncc1 [Compound No. 1-57, 1-[2-(1-Adamantyl)ethyl]-1-butyl-3-[3-(4-pyridyl)propyl]urea] | 109.5 to 118
18 | CCCCCN(CCC1CCCCC1)C(=O)NCc1ccncc1 [Compound No. 1-52, 1-(2-Cyclohexylethyl)-1-pentyl-3-(4-pyridyl)methylurea] | 64.7 to 65.8
19 | CCCCCN(CCC12CC3CC(CC(C3)C1)C2)C(=O)NCCCc1ccnc2ccccc12 [Compound No. 1-91, 1-[2-(1-Adamantyl)ethyl]-1-pentyl-3-[3-(4-quinolyl)propyl]urea] | 80.2 to 102
20 | CCCCCNC(=O)N(CCCc1ccncc1)CCC12CC3CC(CC(C3)C1)C2 [Compound No. 1-66, 1-[2-(1-Adamantyl)ethyl]-3-pentyl-1-[3-(4-pyridyl)propyl]urea] | 47 to 50
21 | CCCCCCN(CCC12CC3CC(CC(C3)C1)C2)C(=O)NCCCc1ccncc1 [Compound No. 1-29, 1-[2-(1-Adamantyl)ethyl]-1-hexyl-3-[3-(4-pyridyl)propyl]urea] | 119.5 to 121.5
22 | CC(C)(C)OC(=O)NCCN(CCC12CC3CC(CC(C3)C1)C2)C(=O)NCCCc1ccncc1 [Compound No. 10-8, 1-[2-(1-Adamantyl)ethyl]-1-[2-[N-(t-butoxycarbonyl)amino]ethyl]-3-[3-(4-pyridyl)propyl]urea] | 158 to 160.5
23 | CN(CCC12CC3CC(CC(C3)C1)C2)C(=O)NCCCc1ccncc1 [Compound No. 1-40, 1-[2-(1-Adamantyl)ethyl]-1-methyl-3-[3-(4-pyridyl)propyl)urea] | 99 to 109

Row | Structure (SMILES) | melting point [°C]
24 | O=C(NCCCc1ccncc1)N(C1CCCCC1)C1CCCCC1 [Compound No. 1-61, 1,1-Dicyclohexyl-3-[3-(4-pyridyl)propyl]urea] | 143 to 145.5
25 | C=C(C)CN(CCC12CC3CC(CC(C3)C1)C2)C(=O)NCCCc1ccncc1 [Compound No. 1-33, 1-[2-(1-Adamantyl)ethyl]-1-(2-methyl-2-propenyl)-3-[3-(4-pyridyl)propyl]urea] | 108 to 109
26 | Cl.O=C1CCN(CCC2CCCCC2)C(=O)N1Cc1ccncc1 | 64 to 74.5
27 | CN(CCN(CCC12CC3CC(CC(C3)C1)C2)C(=O)NCCCc1ccncc1)S(C)(=O)=O [Compound No. 10-4, 1-[2-(1-Adamantyl)ethyl]-1-[2-[N-methyl-N-(methylsulfonyl)amino]ethyl]-3-[3-(4-pyridyl)propyl]urea] | 164.9 to 167.2
28 | CC(C)CCN(CCC(C)C)C(=O)NCCCc1ccncc1.Cl | 120.5 to 131.7
29 | O=C(NCCCc1ccncc1)N1CCc2ccccc2C1 [Compound No. 1-5, N-[3-(4-Pyridyl)propyl]-1,2,3,4-tetrahydroisoquinoline-2-carboxamide] | 76 to 79
30 | O=C(NCCCc1ccncc1)N(CCCC(F)(F)F)CCC12CC3CC(CC(C3)C1)C2 [Compound No. 1-105, 1-[2-(1-Adamantyl)ethyl]-3-[3-(4-pyridyl)propyl]-1-(4,4,4-trifluorobutyl)urea] | 142.6 to 145
31 | CCCCCN(CCC12CC3CC(CC(C3)C1)C2)C(=O)NCCCCc1ccncc1 [Compound No. 1-87, 1-[2-(1-Adamantyl)ethyl]-1-pentyl-3-[4-(4-pyridyl)butyl]urea] | 74.1 to 78.1
32 | O=C(NCCCc1ccncc1)N(CCCCC(F)(F)F)CCC12CC3CC(CC(C3)C1)C2 [Compound No. 1-106, 1-[2-(1-Adamantyl)ethyl]-3-[3-(4-pyridyl)propyl]-1-(5,5,5-trifluoropentyl)urea] | 116.9 to 118.9
33 | CCCCCCCCCCN(CCC12CC3CC(CC(C3)C1)C2)C(=O)NCCCc1ccncc1 [Compound No. 1-32, 1-[2-(1-Adamantyl)ethyl]-1-decyl-3-[3-(4-pyridyl)propyl]urea] | 75 to 76
34 | CCCCCN(CCC12CC3CC(CC(C3)C1)C2)C(=O)NCCCc1ccccn1 [Compound No. 1-83, 1-[2-(1-Adamantyl)ethyl]-1-pentyl-3-[3-(2-pyridyl)propyl]urea] | 84.4 to 85.7
35 | CCNCCN(CCC12CC3CC(CC(C3)C1)C2)C(=O)NCCCc1ccncc1 [Compound No. 20-1, 1-[2-(1-Adamantyl)ethyl]-1-[2-(N-ethylamino)ethyl]-3-[3-(4-pyridyl)propyl]urea] | 96.8 to 104.9
36 | CCCN(CCCCC12CC3CC(CC(C3)C1)C2)C(=O)NCCCc1ccncc1 [Compound No. 1-125, 1-[4-(1-Adamantyl)butyl]-1-propyl-3-[3-(4-pyridyl)propyl]urea] | 110 to 110.5
37 | Cl.O=C1CCN(CCC23CC4CC(CC(C4)C2)C3)C(=O)N1CCCc1ccncc1 | 177 to 178.5
38 | CC(C)N(CCC12CC3CC(CC(C3)C1)C2)C(=O)NCCCc1ccncc1 [Compound No. 1-68, 1-[2-(1-Adamantyl)ethyl]-1-isopropyl-3-[3-(4-pyridyl)propyl]urea] | 132 to 134
39 | CCCCN(CCCC12CC3CC(CC(C3)C1)C2)C(=O)NCCCc1ccncc1 [Compound No. 1-122, 1-[3-(1-Adamantyl)propyl]-1-butyl-3-[3-(4-pyridyl)propyl]urea] | 79.8 to 80.4
40 | O=C(NCCCc1ccncc1)N1CCOCC1 [Compound No. 1-6, N-[3-(4-Pyridyl)propyl]-4-morpholinecarboxamide] | 94 to 98
41 | COCCN(CCC12CC3CC(CC(C3)C1)C2)C(=O)NCCCc1ccncc1 [Compound No. 1-18, 1-[2-(1-Adamantyl)ethyl]-1-(2-methoxyethyl)-3-[3-(4-pyridyl)propyl]urea] | 101.5 to 104.5
